Values after ≈ are worked out from the molar mass of the structure shown. Where two headings read alike, the source gives them in different places. Each block holds one molecule with its values, some of them ahead of it.
Legend:
[1] = system: C. glabrata 2586 clinical strain; test: MIC90/MFC, EUCAST broth microdilution; assay type: cell-based, Candida glabrata
[2] = system: C. glabrata strains (ATCC 90030, 2586, 2853); test: MIC, statements for all tested strains together; assay type: cell-based, Candida glabrata; conditions: all the tested C. glabrata strains, AAB alone
C. glabrata 2853 biofilm = test: Biofilm eradication on polystyrene, fluorescence microscopy (Syto9/PI); assay type: cell-based, Candida glabrata; conditions: Nakaseomyces glabratus, 2853BIOFILM, 72 h, read-out: Biofilm Viability [%] 2853 Live; for viability at 1 µM: AAB alone 1 μM; for viability at 2 µM: AAB alone 2 μM; for viability at 3 µM: AAB alone 3 μM
Description: (§1) C. glabrata biofilm eradication on polystyrene surfaces was assessed according to the following procedure: 1 mL of C. glabrata culture, 10^6 CFU/mL in RMPI 1640 MOPS-buffered medium, was pipetted into the wells of a 48-well adherent plate. Cultures were incubated at 37 °C for 72 h with shaking (400 RPM). […] Non-treated cells were used as the control. This experiment was carried out in triplicate. The analysis of the biofilm eradication of C. glabrata strains on polystyrene surfaces was performed using fluorescence microscopy (FM). For further information, see Section 4.12. below.
(§2) The 72 h biofilm of C. glabrata strains on polystyrene surfaces was stained on 48-well adherent plates with 1 µL of propidium iodide (Ex λ = 543 nm/Em λ = 617 nm) and 1 µL of SYTO9 (Ex λ = 488 nm/Em λ = 503 nm) for 30 min using a LIVE/DEAD BacLight Bacterial Viability Kit (Thermo Fisher Scientific, Waltham, MA USA). Imaging was performed using a fluorescence microscope (FM) BX51 (Olympus, Tokyo, Japan) equipped with an Orca Flash 40 camera (Hamamatsu, Hamamatsu City, Japan) and 10× objective Plan APO. Scale bar = 100 µm. Detailed computer qualitative and quantitative analyses of the obtained pictures were performed by estimating the coverage area on the polystyrene plate (the percentage of the area occupied by the fungal biofilm). The cell viability analysis was performed by calculating the fluorescence intensity of the dyes (Syto9/PI) used. The acquired images were processed and analyzed using Fiji/ImageJ software ver. 1.53c (NIH, Bethesda, MD, USA). First, maximum intensity projections (MIPs) were obtained from stacks of images. The areas of the binary images were transferred into the original live and dead channel MIP images. The mean fluorescence intensities of all detected objects per field of view were calculated using ImageJ’s Analyze Threshold function (Software: ImageJ version 1.53 from Softonic).

[3] = system: C. glabrata ATCC 90030 biofilm; test: as above; assay type: cell-based, Candida glabrata; conditions: Nakaseomyces glabratus, ATCC90030, 72 h, read-out: Biofilm Viability [%] 90030 Live; for viability at 1 µM: AAB alone 1 μM; for viability at 2 µM: AAB alone 2 μM; for viability at 3 µM: AAB alone 3 μM
Description: as §1, §2

C. glabrata 2586 biofilm = test: as above; assay type: cell-based, Candida glabrata; conditions: Nakaseomyces glabratus, 2586BIOFILM, 72 h, read-out: Biofilm Viability [%] 2586 Live; for viability at 1 µM: AAB alone 1 μM; for viability at 2 µM: AAB alone 2 μM; for viability at 3 µM: AAB alone 3 μM
Description: as §1, §2

C. glabrata ATCC 90030 [4] = test: MIC90/MFC, EUCAST broth microdilution; assay type: cell-based, Candida glabrata; conditions: ATCC 90030
[5] = system: C. glabrata 2853 clinical strain; test: MIC90/MFC, EUCAST broth microdilution; assay type: cell-based, Candida glabrata
[6] = system: Balb/3T3 mouse embryonic fibroblasts; test: Cell proliferation assay (MTT test); assay type: cell-based; conditions: 24 h
Description: Balb/3T3 (ATCC CCL-163) mouse embryonic fibroblasts were cultured in DMEM medium supplemented with 10% fetal bovine serum, 1 mM L-glutamine, and a 1% penicillin/streptomycin solution and were used for our cytotoxicity studies. The cells were cultured at 37 °C and 5% CO2 until the cell density of 10^6 mL^−1 was obtained. Such cells were then seeded in 24-well tissue microplates (2 × 10^4 cells per well) and allowed to adhere overnight under the abovementioned conditions. Cytotoxicity tests were carried out on the cells prepared in this way.
The newly synthesized AABs (C9, C11, C13, and C15) were selected based on previous studies. They were analyzed at the concentrations of 0.25, 0.5, 1, 2, and 3 µM. […] The BALB-3T3 cells were treated with the prepared mixtures, dissolved in a complete cell culture medium, and then incubated for 24 h under the abovementioned conditions. Three independent replicates were performed for each combination of compounds.
The cytotoxic effect of the tested compounds in combination with β-AE was evaluated by measuring mitochondrial dehydrogenase activity using the MTT assay. After a 24 h incubation period, the medium supplemented with the 1mM MTT solution was added to each well. The cultures were continued for another 4 h under the conditions enriched with 5% CO2. After this time, the supernatant was collected, and MTT formazan was extracted from the cells using DMSO. The reaction was then stopped with Sörensen buffer (0.1 mol/L glycine; 0.1 mol/L NaCl; and pH 10.5). The percentage of cytotoxicity was calculated by comparing the absorbance values (λ = 560 nm) of the test sample to the control sample, which was untreated fibroblast cells. In the test performed, the negative control (C−) (sample not treated; PBS added) and positive control (C+) were fibroblast cells treated with 1% SDS [60].

Krafft temperature (TK) = assay type: physicochemical
Description: CHNS elemental analysis was carried out by a Vario EL cube (Elementar, Germany) calibrated on acetanilide. Electrospray ionization mass spectroscopy (ESI-MS) (micrOTOF-Q instrument; Bruker Daltonics, Germany) allowed for the MS spectra to be obtained. The ESI-MS instrument was operated in the positive ion mode and calibrated with the Tunemix^TM mixture (Bruker Daltonics, Germany). The mass accuracy was better than 5 ppm. The obtained mass spectra were analyzed using DataAnalysis 3.4 software (Bruker Daltonics, Germany). ^1H NMR spectra were recorded on a Bruker AMX-500 spectrometer, using CDCl3 as a solvent. ^1H chemical shifts (in ppm) were calibrated to TMS as an internal reference. Melting points were determined using a Boetius melting point apparatus, while Krafft temperatures were determined according to the directions given in [47]. CMC is the minimum concentration above which micelles are formed in aqueous liquid. To obtain the CMC values, we used McGowan’s model. […] Molecular characteristic volumes (Vx) are found by the addition of the atomic characteristic volumes and the subtraction for the same factory (6.56 × 10^−6 m^3 mol^−1) for every covalent bond.

C. glabrata 2586 [7] = test: FICI checkerboard, β-aescin with antifungal drugs; assay type: cell-based, Candida glabrata; conditions: combination with β-aescin
[8] = system: biofilms of C. glabrata DSM 1226 and two clinical isolates; set-up: method as in PMID 37508306; conditions: combination with β-AE; biofilms of three strains; ref [12]; cited from earlier work
C. glabrata 2853 [9] = test: Interaction of AABs (3 µM) with antifungal agents, modified checkerboard; assay type: cell-based, Candida glabrata; conditions: for Multiplicity factor (MF) with C9: C9 3 µM
C. glabrata 2586 [10] = test: as above; assay type: cell-based, Candida glabrata
C. glabrata ATCC 90030 [11] = test: FICI checkerboard, β-aescin with antifungal drugs; assay type: cell-based, Candida glabrata
C. glabrata 2853 [12] = test: FICI checkerboard, β-aescin with antifungal drugs; assay type: cell-based, Candida glabrata
C. glabrata ATCC 90030 [13] = test: Interaction of AABs (3 µM) with antifungal agents, modified checkerboard; assay type: cell-based, Candida glabrata
[14] = Nakaseomyces glabratus, ATCC90030, read-out: MIC converted to
[15] = Nakaseomyces glabratus, read-out: MFC
[16] = Nakaseomyces glabratus, read-out: MIC90
[17] = C9 at constant 3 µM, dilutions in µg/mL
[18] = C11 at constant 3 µM, dilutions in µg/mL
[19] = C13 at constant 3 µM, dilutions in µg/mL
[20] = C15 at constant 3 µM, dilutions in µg/mL

MIC90 ([1]; AAB alone): >3 µM/mL
MIC [2, 14]: 1150 µg/mL (≈ 3 mM)
MIC [2]: 3 µM/mL
MIC90 (C. glabrata ATCC 90030 [4]; AAB alone): >3 µM/mL
MIC90 ([5]; AAB alone): >3 µM/mL
TK (Krafft temperature) (Krafft temperature (TK)): 20.5 °C
SMILES: CCCCCCCCCCCCCC(=O)N(C)CCC[N+](C)(C)CC(=O)[O-] [C13]
viability at 1 µM (C. glabrata 2853 biofilm): 11.6%
viability at 2 µM (C. glabrata 2853 biofilm): 4.98%
viability at 3 µM (C. glabrata 2853 biofilm): 14.2%
viability at 1 µM [3]: 1.96%
viability at 2 µM [3]: 6.55%
viability at 3 µM [3]: 2.26%
viability at 1 µM (C. glabrata 2586 biofilm): 4.56%
viability at 2 µM (C. glabrata 2586 biofilm): 4.57%
viability at 3 µM (C. glabrata 2586 biofilm): 12.9%
Cytotoxicity level ([6]; 2 µM/mL): 85%

SMILES: OC(Cn1cncn1)(Cn1cncn1)c1ccc(F)cc1F [Fluconazole]
MFC [1, 15]: 2050 µg/mL (≈ 6.69 mM)
MIC90 [1, 16]: 2050 µg/mL (≈ 6.69 mM)
FICI (C. glabrata 2586 [7]): 1.25
MFC (C. glabrata ATCC 90030 [4]; Nakaseomyces glabratus, ATCC90030, read-out: MFC): 2050 µg/mL (≈ 6.69 mM)
MIC90 (C. glabrata ATCC 90030 [4]; Nakaseomyces glabratus, ATCC90030, read-out: MIC90): 2050 µg/mL (≈ 6.69 mM)
FICI [8]: ≤ 0.5
Multiplicity factor (MF) with C9 (C. glabrata 2853 [9]): 1
Multiplicity factor (MF) with C9 (C. glabrata 2853 [9]; listed as fluconazole): did not interact
MIC90 of antimycotic combined with C9 (C. glabrata 2853 [9]; [17]): 32
Multiplicity factor (MF) with C11 (C. glabrata 2853 [9]; C11 3 µM): 2
MIC90 of antimycotic combined with C11 (C. glabrata 2853 [9]; [18]): 16
Multiplicity factor (MF) with C13 (C. glabrata 2853 [9]; C13 3 µM): 2
MIC90 of antimycotic combined with C13 (C. glabrata 2853 [9]; [19]): 16
Multiplicity factor (MF) with C15 (C. glabrata 2853 [9]; C15 3 µM): 16
MIC90 of antimycotic combined with C15 (C. glabrata 2853 [9]; [20]): 2
MFC [5, 15]: 2050 µg/mL (≈ 6.69 mM)
MIC90 [5, 16]: 32 µg/mL (≈ 0.104 mM)
Multiplicity factor (MF) with C9 (C. glabrata 2586 [10]; C9 3 µM): 8
Multiplicity factor (MF) with C11 (C. glabrata 2586 [10]; C11 3 µM): 64
MIC90 of antimycotic combined with C11 (C. glabrata 2586 [10]; [18]): 32
Multiplicity factor (MF) with C13 (C. glabrata 2586 [10]; C13 3 µM): 64
MIC90 of antimycotic combined with C13 (C. glabrata 2586 [10]; [19]): 32
Multiplicity factor (MF) with C15 (C. glabrata 2586 [10]; C15 3 µM): 64
MIC90 of antimycotic combined with C15 (C. glabrata 2586 [10]; [20]): 32
Type of interaction with β-AE (by FICI) (C. glabrata ATCC 90030 [11]): synergistic
FICI (C. glabrata ATCC 90030 [11]; combination with β-aescin): 0.25
Type of interaction with β-AE (by FICI) (C. glabrata 2853 [12]): additive
FICI (C. glabrata 2853 [12]; combination with β-aescin): 0.75
Multiplicity factor (MF) with C9 (C. glabrata ATCC 90030 [13]; C9 3 µM, |MF| = MIC90 alone/MIC90 with AAB): 16
MIC90 of antimycotic combined with C9 (C. glabrata ATCC 90030 [13]; [17]): 128
Multiplicity factor (MF) with C11 (C. glabrata ATCC 90030 [13]; C11 3 µM): 64
MIC90 of antimycotic combined with C11 (C. glabrata ATCC 90030 [13]; [18]): 32
Multiplicity factor (MF) with C13 (C. glabrata ATCC 90030 [13]; C13 3 µM): 64
MIC90 of antimycotic combined with C13 (C. glabrata ATCC 90030 [13]; [19]): 32
Multiplicity factor (MF) with C15 (C. glabrata ATCC 90030 [13]; C15 3 µM): 64
MIC90 of antimycotic combined with C15 (C. glabrata ATCC 90030 [13]; [20]): 32

MIC90 ([1]; AAB alone): >3 µM/mL
MIC [2, 14]: 1070 µg/mL (≈ 3 mM)
MIC [2]: 3 µM/mL
MIC90 (C. glabrata ATCC 90030 [4]; AAB alone): >3 µM/mL
MIC90 ([5]; AAB alone): >3 µM/mL
TK (Krafft temperature) (Krafft temperature (TK)): ~5 °C
SMILES: CCCCCCCCCCCC(=O)N(C)CCC[N+](C)(C)CC(=O)[O-] [C11]
viability at 1 µM (C. glabrata 2853 biofilm): 37.2%
viability at 2 µM (C. glabrata 2853 biofilm): 3.06%
viability at 3 µM (C. glabrata 2853 biofilm): 7.34%
viability at 1 µM [3]: 32.6%
viability at 2 µM [3]: 3.96%
viability at 3 µM [3]: 2.14%
viability at 1 µM (C. glabrata 2586 biofilm): 4.54%
viability at 2 µM (C. glabrata 2586 biofilm): 4.45%
viability at 3 µM (C. glabrata 2586 biofilm): 3.49%
Cytotoxicity level ([6]; 1 µm/mL): 85%

MIC90 ([1]; AAB alone): >3 µM/mL
MIC [2, 14]: 1240 µg/mL (≈ 3 mM)
MIC [2]: 3 µM/mL
MIC90 (C. glabrata ATCC 90030 [4]; AAB alone): >3 µM/mL
MIC90 ([5]; AAB alone): >3 µM/mL
TK (Krafft temperature) (Krafft temperature (TK)): 36.4 °C
SMILES: CCCCCCCCCCCCCCCC(=O)N(C)CCC[N+](C)(C)CC(=O)[O-] [C15]
viability at 1 µM (C. glabrata 2853 biofilm): 63%
viability at 2 µM (C. glabrata 2853 biofilm): 17%
viability at 3 µM (C. glabrata 2853 biofilm): 6.64%
viability at 1 µM [3]: 41.9%
viability at 2 µM [3]: 28.8%
viability at 3 µM [3]: 41.4%
viability at 1 µM (C. glabrata 2586 biofilm): 6.07%
viability at 2 µM (C. glabrata 2586 biofilm): 2.33%
viability at 3 µM (C. glabrata 2586 biofilm): 6.23%
Decrease of viability ([6]; 0.25 µm/mL): 15%
Decrease of viability ([6]; 0.5 µm/mL): 28%

— paper PMC10932281, “A Combination of β-Aescin and Newly Synthesized Alkylamidobetaines as Modern Components Eradicating the Biofilms of Multidrug-Resistant Clinical Strains of Candida glabrata” (International Journal of Molecular Sciences, 2024)
